Results: patent US6737383B1, “Herbicidal oxadiazolidines” (priority 1999, dated 2004)

Tests used:
[1] = system: surinam grass; assay: Test B pre/postemergence surinam grass; type: in vivo, Brachiaria decumbens
Outline: (§1)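 Response is a visual 0-to-10 score relative to untreated plants, where 0 means no effect and 10 means complete control, taken twelve to sixteen days after application. Treatments went onto soil at planting and onto foliage of 1- to 4-leaf plants, using a surfactant-containing non-phytotoxic solvent.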

[2] = system: sugar beet; assay: Test B pre/postemergence sugar beet; type: in vivo, Beta vulgaris
Outline: as §1

[3] = system: cocklebur; assay: Test B pre/postemergence cocklebur; type: in vivo, Xanthium strumarium
Outline: as §1

[4] = system: bamyardgrass; assay: Test B flood test barnyardgrass; type: in vivo, Echinochloa crus-galli
Outline: (§2)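 Flood test on plants grown to the 2-leaf stage; treated plants kept in greenhouse twelve to sixteen days, then visually rated against controls on a 0 (no effect) to 10 (complete control) scale.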

[5] = system: crabgrass; assay: Test B pre/postemergence crabgrass; type: in vivo, Digitaria sanguinalis
Outline: as §1

[6] = system: velvetleaf; assay: Test B pre/postemergence velvetleaf; type: in vivo, Abutilon theophrasti
Outline: as §1

[7] = system: purple nutsedge; assay: Test B pre/postemergence purple nutsedge; type: in vivo, Cyperus rotundus
Outline: as §1

[8] = system: blackgrass; assay: Test B pre/postemergence blackgrass; type: in vivo, Alopecurus myosuroides; details: for Plant response rating, Blackgrass: scale of 0 to 10 where 0 is no effect and 10 is complete control
Outline: as §1

[9] = system: wild oat; assay: Test B pre/postemergence wild oat; type: in vivo, Avena fatua
Outline: as §1

[10] = system: wheat; assay: Test B pre/postemergence wheat; type: in vivo, Triticum aestivum
Outline: as §1

[11] = system: pigweed; assay: Test B pre/postemergence pigweed; type: in vivo, Amaranthus retroflexus
Outline: as §1

[12] = system: bedstraw; assay: Test B pre/postemergence bedstraw; type: in vivo, Galium aparine; details: Preemergence; for Plant response rating, Bedstraw: scale of 0 to 10 where 0 is no effect and 10 is complete control; for Bedstraw plant response rating: scale 0 to 10, 0 is no effect, 10 is complete control
Outline: as §1

[13] = system: giant foxtail; assay: Test B pre/postemergence giant foxtail; type: in vivo, Setaria faberii
Outline: as §1

[14] = system: duck salad; assay: Test B flood test duck salad; type: in vivo, Heteranthera limosa
Outline: as §2

[15] = system: morningglory; assay: Test B pre/postemergence morningglory; type: in vivo, Ipomoea hederacea
Outline: as §1

[16] = system: rice; assay: Test B flood test rice; type: in vivo, Oryza sativa
Outline: as §2

[17] = Postemergence, Rate 500 g/ha, scale of 0 to 10 where 0 is no effect and 10 is complete control
[18] = Preemergence, Rate 62 g/ha, scale of 0 to 10 where 0 is no effect and 10 is complete control
[19] = Preemergence, Rate 125 g/ha, scale of 0 to 10 where 0 is no effect and 10 is complete control
[20] = Preemergence, Rate 250 g/ha, scale 0 to 10, 0 is no effect, 10 is complete control
[21] = Preemergence, Rate 500 g/ha, scale 0 to 10, 0 is no effect, 10 is complete control
[22] = Rate 62 g/ha, Postemergence, scale 0 to 10 (0 no effect, 10 complete control)
[23] = Rate 125 g/ha, Postemergence, scale 0 to 10, 0 is no effect, 10 is complete control
[24] = Postemergence, Rate 250 g/ha, scale 0 to 10
[25] = Rate 62 g/ha, flood test species, Pre-emergence, visual evaluation after twelve to sixteen days
[26] = Rate 125 g/ha, under heading Pre-emergence, flood test species, visual evaluation after twelve to sixteen days
[27] = Rate 250 g/ha, Pre-emergence (flood test species), scale 0 to 10, 0 is no effect, 10 is complete control
[28] = Rate 500 g/ha, Pre-emergence, flood test species, scale 0 to 10 (0 no effect, 10 complete control)

CCc1nc(C)c(C(C)n2c(=O)on(C(=O)N(c3ccc(F)cc3)C(C)C)c2=O)s1 (centres unmarked) [Compound 449]
B. signalgrass plant response rating ([1]; Postemergence, Rate 250 g/ha, scale 0 to 10, 0 no effect, 10 complete control): 0
B. signalgrass plant response rating [1, 17]: 4
Plant response rating, B. signalgrass [1, 18]: 0
Plant response rating, B. signalgrass [1, 19]: 0
B. signalgrass plant response rating [1, 20]: 0
B. signalgrass plant response rating [1, 21]: 0
B. signalgrass plant response rating [1, 22]: 0
B. signalgrass plant response rating [1, 23]: 0
Sugarbeets plant response rating [2, 24]: 0
Sugarbeets plant response rating [2, 17]: 3
Plant response rating, Sugarbeets [2, 18]: 0
Plant response rating, Sugarbeets [2, 19]: 0
Sugarbeets plant response rating [2, 20]: 0
Sugarbeets plant response rating [2, 21]: 0
Sugarbeets plant response rating [2, 22]: 0
Sugarbeets plant response rating [2, 23]: 0
Cocklebur plant response rating [3, 24]: 2
Cocklebur plant response rating [3, 17]: 3
Plant response rating, Cocklebur [3, 18]: 0
Plant response rating, Cocklebur [3, 19]: 0
Cocklebur plant response rating [3, 20]: 0
Cocklebur plant response rating [3, 21]: 0
Cocklebur plant response rating [3, 22]: 0
Cocklebur plant response rating [3, 23]: 0
Plant response rating, Barnyardgrass (0 to 10 scale, 0 is no effect, 10 is complete control) [4, 25]: 0
Barnyardgrass plant response rating (0 to 10 scale, 0 is no effect, 10 is complete control) [4, 26]: 0
Barnyardgrass plant response rating [4, 27]: 0
Barnyardgrass plant response rating [4, 28]: 0
Crabgrass plant response rating [5, 24]: 2
Crabgrass plant response rating [5, 17]: 2
Plant response rating, Crabgrass [5, 18]: 0
Plant response rating, Crabgrass [5, 19]: 3
Crabgrass plant response rating [5, 20]: 9
Crabgrass plant response rating [5, 21]: 9
Crabgrass plant response rating [5, 22]: 0
Velvetleaf plant response rating [6, 24]: 0
Velvetleaf plant response rating [6, 17]: 0
Plant response rating, Velvetleaf [6, 18]: 0
Plant response rating, Velvetleaf [6, 19]: 0
Velvetleaf plant response rating [6, 20]: 0
Velvetleaf plant response rating [6, 21]: 0
Velvetleaf plant response rating [6, 22]: 0
Velvetleaf plant response rating [6, 23]: 0
Nutsedge plant response rating [7, 24]: 0
Nutsedge plant response rating [7, 17]: 0
Plant response rating, Nutsedge [7, 18]: 0
Plant response rating, Nutsedge [7, 19]: 0
Nutsedge plant response rating [7, 20]: 0
Nutsedge plant response rating [7, 21]: 0
Nutsedge plant response rating [7, 22]: 0
Nutsedge plant response rating [7, 23]: 0
Blackgrass plant response rating [8, 24]: 0
Plant response rating, Blackgrass ([8]; Preemergence, Rate 62 g/ha): 0
Plant response rating, Blackgrass ([8]; Preemergence, Rate 125 g/ha): 0
Blackgrass plant response rating [8, 20]: 0
Blackgrass plant response rating [8, 21]: 3
Blackgrass plant response rating [8, 22]: 0
Blackgrass plant response rating [8, 23]: 0
Wild oats plant response rating [9, 24]: 0
Wild oats plant response rating [9, 17]: 4
Plant response rating, Wild oats [9, 18]: 0
Plant response rating, Wild oats [9, 19]: 0
Wild oats plant response rating [9, 20]: 0
Wild oats plant response rating [9, 21]: 0
Wild oats plant response rating [9, 22]: 0
Wild oats plant response rating [9, 23]: 0
Wheat plant response rating [10, 24]: 0
Wheat plant response rating [10, 17]: 3
Plant response rating, Wheat [10, 18]: 0
Plant response rating, Wheat [10, 19]: 0
Wheat plant response rating [10, 20]: 0
Wheat plant response rating [10, 21]: 0
Wheat plant response rating [10, 22]: 0
Wheat plant response rating [10, 23]: 0
Redroot pigweed plant response rating [11, 24]: 2
Redroot pigweed plant response rating [11, 17]: 4
Plant response rating, Redroot pigweed [11, 18]: 0
Plant response rating, Redroot pigweed [11, 19]: 0
Redroot pigweed plant response rating [11, 20]: 0
Redroot pigweed plant response rating [11, 21]: 3
Redroot pigweed plant response rating [11, 22]: 0
Redroot pigweed plant response rating [11, 23]: 0
Plant response rating, Bedstraw ([12]; Rate 62 g/ha): 0
Plant response rating, Bedstraw ([12]; Rate 125 g/ha): 0
Bedstraw plant response rating ([12]; Rate 250 g/ha): 0
Bedstraw plant response rating ([12]; Rate 500 g/ha): 4
Giant foxtail plant response rating [13, 24]: 0
Giant foxtail plant response rating [13, 17]: 3
Plant response rating, Giant foxtail [13, 18]: 2
Plant response rating, Giant foxtail [13, 19]: 6
Giant foxtail plant response rating [13, 20]: 8
Giant foxtail plant response rating [13, 21]: 10
Giant foxtail plant response rating [13, 22]: 0
Giant foxtail plant response rating [13, 23]: 0
Plant response rating, Ducksalad (0 to 10 scale, 0 is no effect, 10 is complete control) [14, 25]: 0
Ducksalad plant response rating (0 to 10 scale, 0 is no effect, 10 is complete control) [14, 26]: 0
Ducksalad plant response rating [14, 27]: 0
Ducksalad plant response rating [14, 28]: 0
Morningglory plant response rating [15, 24]: 5
Morningglory plant response rating [15, 17]: 5
Plant response rating, Morningglory [15, 18]: 0
Plant response rating, Morningglory [15, 19]: 0
Morningglory plant response rating [15, 20]: 0
Morningglory plant response rating [15, 21]: 0
Morningglory plant response rating [15, 22]: 2
Morningglory plant response rating [15, 23]: 5
Plant response rating, Rice (0 to 10 scale, 0 is no effect, 10 is complete control) [16, 25]: 0
Rice plant response rating (0 to 10 scale, 0 is no effect, 10 is complete control) [16, 26]: 0
Rice plant response rating [16, 27]: 0
Rice plant response rating [16, 28]: 0
